Measured values as given in ChEMBL document CHEMBL1909046, “DrugMatrix in vitro pharmacology data”.

Assays:
[1] = biological target: Matrix metalloproteinase-9 (Homo sapiens, UniProt P14780); experiment: biochemical; format: cell-based;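 note: inhibition of isolated MMP-9 enzyme activity toward a synthetic peptide substrate, from the DrugMatrix protease screening panel; in other assays of this panel Not Active means under 50% inhibition at 10 µM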
[2] = biological target: Carbonic anhydrase 2 (Homo sapiens, UniProt P00918); experiment: DRUGMATRIX: Carbonic Anhydrase II enzyme inhibition (substrate: 4-Nitrophenyl acetate (4-NPA)); format: tissue-based, Erythrocyte; settings: Not Active = under 50% inhibition at 10 µM
[3] = biological target: T1, Muscarinic acetylcholine receptor M2 (Homo sapiens, UniProt P08172); format: cell membranes, CHO-K1, Membrane; settings: cho-k1; note: in other assays of this panel Not Active means under 50% inhibition at 10 µM
T1 sequence (P08172 whole entry): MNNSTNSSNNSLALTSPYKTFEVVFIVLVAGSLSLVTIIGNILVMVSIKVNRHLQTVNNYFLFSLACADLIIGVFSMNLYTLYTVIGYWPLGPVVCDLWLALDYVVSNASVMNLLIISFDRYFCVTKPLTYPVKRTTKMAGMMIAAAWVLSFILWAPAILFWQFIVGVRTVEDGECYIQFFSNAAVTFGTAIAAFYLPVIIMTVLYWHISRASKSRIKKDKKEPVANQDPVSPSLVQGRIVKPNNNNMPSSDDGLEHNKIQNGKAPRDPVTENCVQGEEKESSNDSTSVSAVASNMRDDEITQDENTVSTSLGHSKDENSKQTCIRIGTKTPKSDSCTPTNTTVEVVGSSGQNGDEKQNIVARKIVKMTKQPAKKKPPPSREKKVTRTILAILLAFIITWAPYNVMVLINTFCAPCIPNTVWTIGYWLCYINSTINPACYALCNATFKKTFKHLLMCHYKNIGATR

[4] = biological target: Cytochrome P450 2C19 (Homo sapiens, UniProt P33261); settings: bti-tn-5b1-4; note: in other assays of this panel Not Active means under 50% inhibition at 10 µM
Sequence of Cytochrome P450 2C19 (P33261 whole entry): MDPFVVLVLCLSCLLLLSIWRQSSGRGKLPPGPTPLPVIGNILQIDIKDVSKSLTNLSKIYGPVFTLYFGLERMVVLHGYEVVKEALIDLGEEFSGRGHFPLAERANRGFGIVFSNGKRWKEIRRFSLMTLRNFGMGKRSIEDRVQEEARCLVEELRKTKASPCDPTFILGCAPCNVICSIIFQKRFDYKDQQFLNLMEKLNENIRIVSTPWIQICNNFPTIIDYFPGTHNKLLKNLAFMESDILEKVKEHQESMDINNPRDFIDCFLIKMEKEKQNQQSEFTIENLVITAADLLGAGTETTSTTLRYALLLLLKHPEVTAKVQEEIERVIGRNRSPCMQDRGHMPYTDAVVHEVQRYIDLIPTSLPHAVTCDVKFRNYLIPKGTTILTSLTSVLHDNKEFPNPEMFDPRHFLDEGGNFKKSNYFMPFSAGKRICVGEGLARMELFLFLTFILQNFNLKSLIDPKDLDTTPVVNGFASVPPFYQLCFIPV

[5] = biological target: Mitogen-activated protein kinase 3 (Homo sapiens, UniProt P27361); experiment: DRUGMATRIX: Protein Serine/Threonine Kinase, ERK1 enzyme inhibition (substrate: Myelin Basic Protein); parameters: species or system Escherichia coli; settings: Not Active = under 50% inhibition at 10 µM
Sequence of Mitogen-activated protein kinase 3 (P27361 whole entry): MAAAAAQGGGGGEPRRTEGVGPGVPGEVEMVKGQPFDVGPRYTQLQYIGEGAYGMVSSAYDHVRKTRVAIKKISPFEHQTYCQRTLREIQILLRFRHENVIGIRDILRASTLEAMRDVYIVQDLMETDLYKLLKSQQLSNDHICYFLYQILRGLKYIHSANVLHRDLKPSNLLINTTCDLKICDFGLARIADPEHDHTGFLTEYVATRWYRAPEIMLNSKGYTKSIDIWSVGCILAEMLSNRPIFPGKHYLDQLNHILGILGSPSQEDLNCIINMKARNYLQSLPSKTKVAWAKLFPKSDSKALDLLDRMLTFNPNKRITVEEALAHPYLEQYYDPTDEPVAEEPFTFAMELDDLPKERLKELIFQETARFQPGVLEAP

[6] = biological target: T2, Alpha-2C adrenergic receptor (Homo sapiens, UniProt P18825); experiment: DRUGMATRIX: Adrenergic Alpha-2C radioligand binding (ligand: [3H] MK-912); format: cell membranes, Sf9, Membrane; settings: sf9
T2 sequence (P18825 whole entry): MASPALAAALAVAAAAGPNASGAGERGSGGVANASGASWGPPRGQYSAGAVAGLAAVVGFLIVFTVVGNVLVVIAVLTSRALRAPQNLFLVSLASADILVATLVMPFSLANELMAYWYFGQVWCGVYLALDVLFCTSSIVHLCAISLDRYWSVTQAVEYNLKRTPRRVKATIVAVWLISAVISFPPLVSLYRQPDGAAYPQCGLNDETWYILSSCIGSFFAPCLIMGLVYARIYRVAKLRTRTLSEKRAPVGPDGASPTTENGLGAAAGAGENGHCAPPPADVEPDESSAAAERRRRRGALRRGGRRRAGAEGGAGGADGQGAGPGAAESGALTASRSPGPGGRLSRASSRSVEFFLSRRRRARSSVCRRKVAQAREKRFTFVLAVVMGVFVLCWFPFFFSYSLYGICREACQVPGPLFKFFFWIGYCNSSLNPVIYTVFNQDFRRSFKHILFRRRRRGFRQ

[7] = biological target: Cytochrome P450 2E1 (Homo sapiens, UniProt P05181); settings: bti-tn-5b1-4; note: in other assays of this panel Not Active means under 50% inhibition at 10 µM
Sequence of Cytochrome P450 2E1 (P05181 whole entry): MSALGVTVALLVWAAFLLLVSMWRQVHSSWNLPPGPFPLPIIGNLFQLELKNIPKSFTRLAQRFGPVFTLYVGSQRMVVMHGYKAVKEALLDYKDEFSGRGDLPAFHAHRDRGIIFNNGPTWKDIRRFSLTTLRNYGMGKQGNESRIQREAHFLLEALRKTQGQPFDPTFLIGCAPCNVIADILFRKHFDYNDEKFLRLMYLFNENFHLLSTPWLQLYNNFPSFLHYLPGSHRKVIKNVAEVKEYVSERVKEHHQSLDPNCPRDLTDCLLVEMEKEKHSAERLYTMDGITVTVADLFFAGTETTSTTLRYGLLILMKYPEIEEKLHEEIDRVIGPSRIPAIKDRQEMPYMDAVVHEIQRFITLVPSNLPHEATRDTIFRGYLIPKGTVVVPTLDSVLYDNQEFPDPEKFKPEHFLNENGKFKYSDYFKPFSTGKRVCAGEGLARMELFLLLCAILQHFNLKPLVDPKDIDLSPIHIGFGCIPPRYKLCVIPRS

Sequence of Matrix metalloproteinase-9 (P14780 whole entry): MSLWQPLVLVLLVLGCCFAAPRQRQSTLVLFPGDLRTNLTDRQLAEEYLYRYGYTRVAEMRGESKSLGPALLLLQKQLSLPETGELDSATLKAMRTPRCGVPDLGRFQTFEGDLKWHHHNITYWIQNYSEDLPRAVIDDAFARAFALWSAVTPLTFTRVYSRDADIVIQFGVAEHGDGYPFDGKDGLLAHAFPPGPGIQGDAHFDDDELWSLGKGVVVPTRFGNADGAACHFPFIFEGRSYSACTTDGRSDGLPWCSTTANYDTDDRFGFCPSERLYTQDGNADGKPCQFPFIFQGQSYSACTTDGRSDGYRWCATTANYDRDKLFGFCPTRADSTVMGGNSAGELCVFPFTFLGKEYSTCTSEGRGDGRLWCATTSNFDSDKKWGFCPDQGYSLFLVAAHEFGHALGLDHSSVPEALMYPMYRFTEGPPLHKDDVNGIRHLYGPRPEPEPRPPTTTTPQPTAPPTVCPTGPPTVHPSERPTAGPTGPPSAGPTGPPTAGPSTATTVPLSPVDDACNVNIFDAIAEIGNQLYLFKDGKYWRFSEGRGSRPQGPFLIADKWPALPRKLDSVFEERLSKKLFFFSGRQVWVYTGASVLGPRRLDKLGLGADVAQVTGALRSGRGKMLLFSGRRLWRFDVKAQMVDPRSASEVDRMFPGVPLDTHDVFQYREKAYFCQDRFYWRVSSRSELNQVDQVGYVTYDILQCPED

Row | SMILES | IC50 [1] | IC50 ([2]; erythrocyte) | IC50 [3] | IC50 [4] | Ki [4] | IC50 [5] | IC50 [6] | IC50 [7] | Ki [7] | IC50 ([2]; read-out: IC50) [µM]
1 | COc1cc(N)nc2[nH]c(-c3ccc(F)cc3)c(-c3ccncc3)c12 | Not Active | Not Active | Not Active | Not Active | Not Active | Not Active | Not Active | Not Active | Not Active | 
2 | CNS(=O)(=O)Cc1ccc2[nH]cc(CCN(C)C)c2c1 | Not Active | Not Active | Not Active | Not Active | Not Active | Not Active | Not Active | Not Active | Not Active | 
3 | CCCc1nn(C)c2c(=O)[nH]c(-c3cc(S(=O)(=O)N4CCN(C)CC4)ccc3OCC)nc12 | Not Active | Not Active | Not Active | Not Active | Not Active | Not Active | Not Active | Not Active | Not Active | 
4 | COc1ccc(/C=C/C(=O)Nc2ccccc2C(=O)O)cc1OC | Not Active | Not Active | Not Active | Not Active | Not Active | Not Active | Not Active | Not Active | Not Active | 
5 | CCOC(N)=O | Not Active | Not Active | Not Active | Not Active | Not Active | Not Active | Not Active | Not Active | Not Active | 
6 | CC(=O)Nc1nnc(S(N)(=O)=O)s1 [ACETAZOLAMIDE] | Not Active |  | Not Active | Not Active | Not Active | Not Active | Not Active | Not Active | Not Active | 
7 | O=c1[nH]c2ccccc2n1CCCN1CCC(n2c(=O)[nH]c3cc(Cl)ccc32)CC1 [DOMPERIDONE] | Not Active | Not Active | Not Active |  |  | Not Active |  |  |  | 
8 | CC1=C(CC(=O)O)c2cc(F)ccc2/C1=C\c1ccc(S(C)(=O)=O)cc1 [EXISULIND] | Not Active | Not Active | Not Active | Not Active | Not Active | Not Active | Not Active | Not Active | Not Active | 
9 | CC(C)OC(=O)C(C)(C)Oc1ccc(C(=O)c2ccc(Cl)cc2)cc1 [FENOFIBRATE] | Not Active | Not Active | Not Active | Not Active | Not Active | Not Active | Not Active | Not Active | Not Active | 
10 | OCCN1CCN(CCCN2c3ccccc3Sc3ccc(C(F)(F)F)cc32)CC1 [FLUPHENAZINE] | Not Active | Not Active |  |  |  | Not Active |  | Not Active | Not Active | 
11 | CN1C2CCCC1CC(NC(=O)c1nn(C)c3ccccc13)C2 (stereo not given) [GRANISETRON] | Not Active | Not Active | Not Active | Not Active | Not Active | Not Active | Not Active | Not Active | Not Active | 
12 | Nc1nc2c(c(=O)[nH]1)N(C=O)C(CNc1ccc(C(=O)N[C@@H](CCC(=O)O)C(=O)O)cc1)CN2 (stereo not given in full) [LEUCOVORIN] | Not Active | Not Active | Not Active | Not Active | Not Active |  | Not Active | Not Active | Not Active | 
13 | C[C@@H](O)[C@H]1C(=O)N2C(C(=O)O)=C(S[C@@H]3CN[C@H](C(=O)N(C)C)C3)[C@H](C)[C@H]12 [MEROPENEM] | Not Active | Not Active | Not Active | Not Active | Not Active | Not Active | Not Active | Not Active | Not Active | 
14 | CC[C@@H](CO)NC(=O)[C@@H]1C=C2c3cccc4c3c(cn4C)C[C@H]2N(C)C1 [METHYSERGIDE] | Not Active | Not Active | Not Active | Not Active | Not Active | Not Active | Not Active | Not Active | Not Active | 
15 | CCN(CC)CC#CCOC(=O)C(O)(c1ccccc1)C1CCCCC1 (stereo not given) [OXYBUTYNIN] | Not Active | Not Active |  |  |  | Not Active | Not Active | Not Active | Not Active | 
16 | O=P(O)(O)C(O)(Cc1cccnc1)P(=O)(O)O [RISEDRONIC ACID] | Not Active | Not Active | Not Active | Not Active | Not Active | Not Active | Not Active | Not Active | Not Active | 
17 | CN(CCOc1ccc(CC2SC(=O)NC2=O)cc1)c1ccccn1 (stereo not given) [ROSIGLITAZONE] | Not Active |  | Not Active | Not Active | Not Active | Not Active | Not Active | Not Active | Not Active | 4.07
18 | C=C(C)[C@H]1Cc2c(ccc3c2O[C@@H]2COc4cc(OC)c(OC)cc4[C@@H]2C3=O)O1 [ROTENONE] | Not Active | Not Active | Not Active |  |  | Not Active | Not Active | Not Active | Not Active | 
19 | C#CCN(C)[C@H](C)Cc1ccccc1 [SELEGILINE] | Not Active | Not Active | Not Active |  |  | Not Active | Not Active | Not Active | Not Active | 
20 | CO[C@H]1C[C@@H]2CC[C@@H](C)[C@@](O)(O2)C(=O)C(=O)N2CCCC[C@H]2C(=O)O[C@H]([C@H](C)C[C@@H]2CC[C@@H](O)[C@H](OC)C2)CC(=O)[C@H](C)/C=C(\C)[C@@H](O)[C@@H](OC)C(=O)[C@H](C)C[C@H](C)/C=C/C=C/C=C/1C [SIROLIMUS] | Not Active | Not Active | Not Active |  |  | Not Active | Not Active | Not Active | Not Active | 
21 | CN[C@@H]1[C@H](O)[C@H](NC)[C@H]2O[C@@]3(O)C(=O)C[C@@H](C)O[C@H]3O[C@@H]2[C@H]1O [SPECTINOMYCIN] | Not Active | Not Active | Not Active |  |  | Not Active | Not Active | Not Active | Not Active | 
22 | Nc1ccc(S(=O)(=O)Nc2ncccn2)cc1 [SULFADIAZINE] | Not Active |  | Not Active | Not Active | Not Active | Not Active | Not Active | Not Active | Not Active | 
23 | COc1ncnc(NS(=O)(=O)c2ccc(N)cc2)c1OC [SULFADOXINE] | Not Active | Not Active | Not Active | Not Active | Not Active | Not Active | Not Active | Not Active | Not Active | 
24 | Nc1ccc(S(=O)(=O)Nc2nccs2)cc1 [SULFATHIAZOLE] | Not Active | Not Active | Not Active | Not Active | Not Active | Not Active | Not Active | Not Active | Not Active | 
25 | C[C@]12CC[C@H]3[C@@H](CCC4=CC(=O)CC[C@@]43C)[C@@H]1CC[C@@H]2O [TESTOSTERONE] | Not Active | Not Active | Not Active | Not Active | Not Active | Not Active | Not Active | Not Active | Not Active | 
26 | CCS(=O)(=O)CCn1c([N+](=O)[O-])cnc1C [TINIDAZOLE] | Not Active | Not Active | Not Active |  |  | Not Active | Not Active |  |  | 
27 | O=c1n(CCCN2CCN(c3cccc(Cl)c3)CC2)nc2ccccn12 [TRAZODONE] | Not Active | Not Active | Not Active | Not Active | Not Active | Not Active |  | Not Active | Not Active | 
28 | COc1ccc(CN2CCNCC2)c(OC)c1OC [TRIMETAZIDINE] | Not Active | Not Active | Not Active |  |  | Not Active | Not Active |  |  | 
